This experiment deals with T1, BCL6::BCOR (Homo sapiens, UniProt P41182, C67R/C84N/C8Q).
T1 construct: BCL6 (amino acids 5 to 129, with the following changes to the natural protein); made in house; host or cells: E. coli
Kind of experiment: BCL6::BCOR ULight TR-FRET assay. The class given is binding. A digest of the protocol: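 Biotin-Avi BCL6 (aa 5–129, C8Q/C67R/C84N; E. coli), 1 nM, preincubated 30 min RT with compound (11-point fivefold series, top 100 μM) in HEPES pH 7.3 buffer; then 100 nM ULight-BCOR peptide plus 0.75 nM streptavidin-Eu added, 240 min RT. TR-FRET read, normalized to DMSO controls with/without BCL6.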

On to `CNC(=O)COc1cc2cc(Nc3nc(N4CCN(CCC(=O)O)C(=O)C4)ncc3Cl)ccc2n(C)c1=O` [Compound I-92], for which the IC50 was 5 nM.
To `CNC(=O)COc1cc2cc(Nc3nc(N4CCC(CC(=O)O)CC4)ncc3Cl)ccc2n(C)c1=O` [Compound I-93] belongs 4 nM; to `CNC(=O)COc1cc2cc(Nc3nc(N4CCC(C(=O)O)CC4)ncc3Cl)cc(OC)c2n(C)c1=O` [Compound I-94], 2 nM.
`CNC(=O)COc1cc2cc(Nc3nc(N4CCC[C@@H](C(=O)O)C4)ncc3Cl)cc(OC)c2n(C)c1=O` [Compound I-95] displayed an IC50 of 2 nM.
The compound `CNC(=O)COc1cc2cc(Nc3nc(N4CCC[C@H](C(=O)O)C4)ncc3Cl)cc(OC)c2n(C)c1=O` [Compound I-96] displayed an IC50 of 2 nM. That is a single-digit nanomolar value.
Turning to `CNC(=O)COc1cc2cc(Nc3nc(N4CCC(F)(F)CC4)ncc3Cl)cc(OC)c2n(C)c1=O` [Compound I-97], the IC50 turned out to be 4 nM.
`CNC(=O)COc1cc2cc(Nc3nc(N4CCC(F)CC4)ncc3Cl)cc(OC)c2n(C)c1=O` [Compound I-98]: the IC50 amounted to 4 nM. This lies in the single-digit nanomolar range.
As to `CNC(=O)COc1cc2cc(Nc3nc(N4C[C@H](C)C[C@H](C)C4)ncc3Cl)cc(OC)c2n(C)c1=O` [Compound I-99], the IC50 came out at 7 nM.
Consider `C[C@@H]1C[C@H](C)CN(c2ncc(F)c(Nc3ccc4c(c3)cc(OCC(=O)O)c(=O)n4C)n2)C1` [Compound I-100], for which it took 12 nM to reach half-maximal inhibition (IC50). Against the preceding compound, the IC50 is about 1.7-fold higher.
`Cn1c(=O)c(OCC(=O)O)cc2cc(Nc3nc(N4CCC(Nc5ncccn5)CC4)ncc3Cl)ccc21` [Compound I-101]: the 50% inhibitory concentration (IC50) is 10 nM.
Compound `Cn1c(=O)c(OCC(=O)O)cc2cc(Nc3nc(N4CCC(C(=O)O)CC4)ncc3Cl)ccc21` [Compound I-102] gave an IC50 of 7 nM.
`Cn1c(=O)c(OCC(=O)O)cc2cc(Nc3nc(N4CCC5(CC4)OCCCO5)ncc3Cl)ccc21` [Compound I-103]: the half-maximal inhibitory concentration (IC50) stood at 10 nM.
Compound `CCOC(=O)CC1CCCN(c2ncc(Cl)c(Nc3ccc4c(c3)cc(OCC(=O)O)c(=O)n4C)n2)C1` (stereo not drawn) [Compound I-104] came in with a concentration for half-maximal inhibition (IC50) of 10 nM. That is a double-digit nanomolar value.
In the case of `Cn1c(=O)c(OCC(=O)O)cc2cc(Nc3nc(N4CCCN(c5ccccc5)CC4)ncc3Cl)ccc21` [Compound I-105], the 50% inhibitory concentration (IC50) is 114 nM.
`Cn1c(=O)c(OCC(=O)O)cc2cc(Nc3nc(N4CCc5ccccc5CC4)ncc3Cl)ccc21` [Compound I-106] showed a half-inhibitory concentration (IC50) of 210 nM.
As for `CCNC(=O)C1CCCN(c2ncc(Cl)c(Nc3ccc4c(c3)cc(OCC(=O)O)c(=O)n4C)n2)C1` (stereo not drawn) [Compound I-107], half-maximal inhibition (IC50) was put at 10 nM.
To `Cn1c(=O)c(OCC(=O)O)cc2cc(Nc3nc(N4C[C@H]5C[C@@H](C4)c4ccccc45)ncc3Cl)ccc21` [Compound I-108] belongs 38 nM.
`Cn1c(=O)c(OCC(=O)O)cc2cc(Nc3nc(N4CCC(c5ccccc5)CC4)ncc3Cl)ccc21` [Compound I-109]: the concentration for half-maximal inhibition (IC50) worked out at 21 nM.
On to `COCCN1CCN(c2ncc(Cl)c(Nc3ccc4c(c3)cc(OCC(=O)O)c(=O)n4C)n2)CC1C` (stereo not drawn) [Compound I-110], for which the half-inhibitory concentration (IC50) stood at 17 nM. This IC50 and that of the compound before are within 1.5-fold of each other.
Compound `Cn1c(=O)c(OCC(=O)O)cc2cc(Nc3nc(N4CCC5(CCCCC5)CC4)ncc3Cl)ccc21` [Compound I-111] had an IC50 of 108 nM.
To `CCOC1CCCN(c2ncc(Cl)c(Nc3ccc4c(c3)cc(OCC(=O)O)c(=O)n4C)n2)C1` (stereo not drawn) [Compound I-112] belongs 7 nM.
Turning to `C#CC1CCN(c2ncc(Cl)c(Nc3ccc4c(c3)cc(OCC(=O)O)c(=O)n4C)n2)CC1` [Compound I-113], the IC50 worked out at 7 nM.
To `CC1CN(c2ncc(Cl)c(Nc3ccc4c(c3)cc(OCC(=O)O)c(=O)n4C)n2)CCS1` (stereo not drawn) [Compound I-114] belongs 9 nM.
Regarding `Cn1cnc2c1CCN(c1ncc(Cl)c(Nc3ccc4c(c3)cc(OCC(=O)O)c(=O)n4C)n1)C2` [Compound I-115], half-maximal inhibition (IC50) required 9 nM.
On to `Cn1c(=O)c(OCC(=O)O)cc2cc(Nc3nc(N4CCc5[nH]nnc5C4)ncc3Cl)ccc21` [Compound I-116], for which inhibition was half-maximal at 10 nM (IC50).
`C[C@H]1CN(c2ncc(Cl)c(Nc3ccc4c(c3)cc(OCC(=O)O)c(=O)n4C)n2)CCO1` [Compound I-117]: it took 11 nM to reach half-maximal inhibition (IC50).
For `Cn1c(=O)c(OCC(=O)O)cc2cc(Nc3nc(N4CCCC(F)(F)CC4)ncc3Cl)ccc21` [Compound I-118], the IC50 was found to be 16 nM.
Compound `CC1CCCN(c2ncc(Cl)c(Nc3ccc4c(c3)cc(OCC(=O)O)c(=O)n4C)n2)C1` (stereo not drawn) [Compound I-119] showed a half-maximal inhibitory concentration (IC50) of 13 nM.
Compound `Cn1c(=O)c(OCC(=O)O)cc2cc(Nc3nc(N4CCC(N5CCOCC5)C4)ncc3Cl)ccc21` (stereo not drawn) [Compound I-120] showed an IC50 of 11 nM.
For `CC1CCN(c2ncc(Cl)c(Nc3ccc4c(c3)cc(OCC(=O)O)c(=O)n4C)n2)CC1` [Compound I-121], the concentration for half-maximal inhibition (IC50) amounted to 10 nM.
Compound `CCC1CN(c2ncc(Cl)c(Nc3ccc4c(c3)cc(OCC(=O)NC)c(=O)n4C)n2)CCN1CC(F)F` (stereo not drawn) [Compound I-122] returned a half-maximal inhibitory concentration (IC50) of 6 nM.
As for `CNC(=O)COc1cc2cc(Nc3nc(N4CCCC(CCCCN5CCCC5)C4)ncc3Cl)ccc2n(C)c1=O` (stereo not drawn) [Compound I-123], the figure is 7 nM; as for `CNC(=O)COc1cc2cc(Nc3nc(N4CCC5CN(Cc6ccccc6)CC54)ncc3Cl)ccc2n(C)c1=O` (stereo not drawn) [Compound I-125], 10 nM.
To `CCN(CC)CCCCC1CCCN(c2ncc(Cl)c(Nc3ccc4c(c3)cc(OCC(=O)NC)c(=O)n4C)n2)C1` (stereo not drawn) [Compound I-126] belongs 7 nM.
In turn, `CNC(=O)COc1cc2cc(Nc3nc(N4CCCC(CN5CCCCC5)C4)ncc3Cl)ccc2n(C)c1=O` (stereo not drawn) [Compound I-127] yielded an IC50 of 9 nM.
In turn, `CCCN(CCC)CCC1CCN(c2ncc(Cl)c(Nc3ccc4c(c3)cc(OCC(=O)NC)c(=O)n4C)n2)CC1` [Compound I-128] registered a half-inhibitory concentration (IC50) of 7 nM.
The compound `C[C@@H]1C[C@H](C)CN(c2ncc(Cl)c(Nc3ccc4c(c3)cc(OCC(=O)O)c(=O)n4C)n2)C1` [Compound I-131, 2-{[6-({5-chloro-2-[cis-3,5-dimethylpiperidin-1-yl]pyrimidin-4-yl}amino)-1-methyl-2-oxo-1,2-dihydroquinolin-3-yl]oxy}-acetic acid] displayed an IC50 of 5 nM.
`Cn1c(=O)c(OCC(=O)O)cc2cc(Nc3nc(N4CCC(F)CC4)ncc3Cl)ccc21` [Compound I-132, 2-[(6-{[5-chloro-2-(4-fluoropiperidin-1-yl)pyrimidin-4-yl]amino}-1-methyl-2-oxo-1,2-dihydro-quinolin-3-yl)oxy]acetic acid]: the concentration for half-maximal inhibition (IC50) is 5 nM.
The compound `C[C@@H]1C[C@H](C)CN(c2ncc(Cl)c(Nc3ccc4c(c3)cc(OCC(=O)N(C)C)c(=O)n4C)n2)C1` [Compound I-133, 2-{[6-({5-chloro-2-[cis-3,5-dimethyl-piperidin-1-yl]pyrimidin-4-yl}amino)-1-methyl-2-oxo-1,2-dihydroquinolin-3-yl]oxy}-N,N-dimethylacetamide] had an IC50 of 29 nM.
For the compound `COCCN(C)C(=O)COc1cc2cc(Nc3nc(N4C[C@H](C)C[C@H](C)C4)ncc3Cl)ccc2n(C)c1=O` [Compound I-134], the IC50 amounted to 77 nM.
As for `C[C@@H]1C[C@H](C)CN(c2ncc(Cl)c(Nc3ccc4c(c3)cc(OCC(=O)NCCO)c(=O)n4C)n2)C1` [Compound I-135], the figure is 16 nM; as for `C[C@@H]1C[C@H](C)CN(c2ncc(Cl)c(Nc3ccc4c(c3)cc(OCC(=O)NCC(O)C(F)(F)F)c(=O)n4C)n2)C1` (stereo partly drawn) [Compound I-136], 269 nM; as for `CCNC(=O)COc1cc2cc(Nc3nc(N4C[C@H](C)C[C@H](C)C4)ncc3Cl)ccc2n(C)c1=O` [Compound I-137], 21 nM.
`C[C@@H]1C[C@H](C)CN(c2ncc(Cl)c(Nc3ccc4c(c3)cc(OCC(=O)NCCN(C)C)c(=O)n4C)n2)C1` [Compound I-138] returned an IC50 of 529 nM.
Compound `C[C@@H]1C[C@H](C)CN(c2ncc(Cl)c(Nc3ccc4c(c3)cc(OCC(=O)OCCN(C)C)c(=O)n4C)n2)C1` [Compound I-139, 2-(dimethylamino)ethyl 2-{[6-({5-chloro-2-[cis-3,5-dimethylpiperidin-1-yl]pyrimidin-4-yl}amino)-1-methyl-2-oxo-1,2-dihydroquinolin-3-yl]oxy}acetate] showed a half-inhibitory concentration (IC50) of 6 nM.
In turn, `CC(CN(C)C)OC(=O)COc1cc2cc(Nc3nc(N4C[C@H](C)C[C@H](C)C4)ncc3Cl)ccc2n(C)c1=O` (stereo partly drawn) [Compound I-140] returned an IC50 of 5 nM. The IC50 values of the last two compounds are within 1.5-fold of each other.
Compound `C[C@@H]1C[C@H](C)CN(c2ncc(Cl)c(Nc3ccc4c(c3)cc(OCC(=O)OCCCN(C)C)c(=O)n4C)n2)C1` [Compound I-141] returned a half-inhibitory concentration (IC50) of 9 nM.
Consider `C[C@@H]1C[C@H](C)CN(c2ncc(Cl)c(Nc3ccc4c(c3)cc(OCC(=O)OCCN3CCOCC3)c(=O)n4C)n2)C1` [Compound I-142], for which half-maximal inhibition (IC50) required 5 nM.
To `CNC(=O)COc1cc2cc(Nc3nc(N4CCC(C(=O)N(C)CCOCCN)CC4)ncc3Cl)ccc2n(C)c1=O` [Compound I-143] belongs 6 nM.
For the compound `CNC(=O)COc1cc2cc(Nc3nc(N4CCC(C(=O)NCCOCCN)CC4)ncc3Cl)ccc2n(C)c1=O` [Compound I-144], inhibition was half-maximal at 22 nM (IC50).
On to `CNC(=O)COc1cc2cc(Nc3nc(N4CCC(C(=O)NCCCCCN)CC4)ncc3Cl)ccc2n(C)c1=O` [Compound I-145], for which the IC50 worked out at 6 nM.
To `CNC(=O)COc1cc2cc(Nc3nc(N4CCC(C(=O)NCCCCCCN)CC4)ncc3Cl)ccc2n(C)c1=O` [Compound I-146] belongs 6 nM; to `CNC(=O)COc1cc2cc(Nc3nc(N4CCC(C(=O)NCCOCCOCCN)CC4)ncc3Cl)ccc2n(C)c1=O` [Compound I-147], 5 nM.
The compound `CNC(=O)COc1cc2cc(Nc3nc(N4CCC(C(=O)N(C)C)CC4)ncc3Cl)cc(OC)c2n(C)c1=O` [Compound I-148, 1-[5-chloro-4-({8-methoxy-1-methyl-3-[(methylcarbamoyl)methoxy]-2-oxo-1,2-dihydroquinolin-6-yl}amino)pyrimidin-2-yl]-N,N-dimethylpiperidine-4-carboxamide] came in with an IC50 of 3 nM. Compared with the last compound, the IC50 is about 1.7-fold lower.

The record behind these values is US11001570B2, “6-amino-quinolinone compounds and derivatives as BCL6 inhibitors” (Boehringer Ingelheim International GmbH, priority 2016, dated 2021).
